Source: patent US20060020036A1, “Methods and compositions to promote bone homestasis” (priority 2004, published 2006)
Entries after “also recorded” stand apart in the source; their conditions may differ.

Tests used:
[1] = test system: NR5A2 mRNA; assay: Up-regulation of NR5A2 and NR1H3 mRNA levels by osteogenic triggers in MPCs; type: cell-based, human; settings: final concentration 0.1 μM, vs vehicle, several time points
Experimental: 100,000 MPCs are seeded in each well of a 6 well plate in 2 ml MPC medium, containing 10% FCS. The next day, after incubation at 37° C., 10% CO2 in a humidified incubator, cells are co-infected with AdC15-hCAR (final MOI of 750) and Ad-BMP2, Ad-RUNX2, Ad-MSX2, Ad-PTHR1/PTHLH or Ad-eGFP or Ad-luciferase as negative controls (final MOIs of 1250 and 2500). Alternatively, cells are treated with dexamethasone (final concentration 0.1 μM), VitD3 (final concentration 0.1 μM) or the vehicle controls (0.1% EtOH or DMSO). Cells are incubated at 37° C., 10% CO2 in a humidified incubator for a further six days unless cells are already harvested for RNA isolation. Virus is removed and replaced by 2 ml fresh OS medium (proprietary medium containing 10% FCS). Over the next 18 days, medium is refreshed 3 times per 2 weeks. Every other time, medium is refreshed half or completely. […] The fold up-regulation of NR5A2 or NR1H3 mRNA compared to negative controls (vehicle for dexamethasone or VitD3 treatment) or Ad-luciferase for Ad-infections) is calculated (FIG. 16).

[2] = molecular target: T1, GPR65 (Homo sapiens, UniProt Q8IYL9); assay: AP assay: MPCs infected with Ad-GPR65 and treated with ligand; type: cell-based; settings: ligand at different concentrations
T1 construct: amplification of the complete open reading frame from ATG start codon to the stop codon of drugable genes; expressed in transfected cells; host or cells: primary human mesenchymal progenitor cells (MPCs), transduced with Ad-GPR65 and Ad-hCAR
T1 sequence (Q8IYL9 whole entry): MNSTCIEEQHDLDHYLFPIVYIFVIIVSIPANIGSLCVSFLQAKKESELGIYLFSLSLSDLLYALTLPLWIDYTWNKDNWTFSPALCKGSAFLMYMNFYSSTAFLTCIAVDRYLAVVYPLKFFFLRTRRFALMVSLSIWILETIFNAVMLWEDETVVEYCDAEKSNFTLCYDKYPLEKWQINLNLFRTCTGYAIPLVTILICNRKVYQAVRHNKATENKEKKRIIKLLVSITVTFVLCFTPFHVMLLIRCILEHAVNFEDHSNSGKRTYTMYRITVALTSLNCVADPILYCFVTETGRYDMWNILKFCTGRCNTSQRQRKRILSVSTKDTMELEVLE
Experimental: These dose-response curves are depicted in FIG. 5. A dose-response curve for AP activity is generated for MPCs infected with Ad-NR1H3 and treated with T0901317 (FIG. 5A). MPCs are seeded on day 0 at 1000 cells per well of a 384 well plate and co-infected the next day using AdC51-hCAR (MOI 250) and different MOIs of Ad5-NR1H3 (MOI 12000, 4000, 1333, 444). On day 1, 5 concentrations (1E-10M, 1E-9M, 1E-8M, 1E-7M, 1E-6M) of the compound T0901317 (Cayman Chemical, Michigan, USA, Cat. No. 71810) with fixed vehicle concentration (the vehicle is DMSO at the concentration is 0.01%) are added to the wells. After incubation for 6 days at 37° C., 10% CO2 in a humidified incubator, up-regulation of alkaline phosphatase is read: 15 μl MUP is added to each well, the plates are incubated for 15 min at 37° C. and monitored for AP activity using a fluorescence plate reader (Fluostar, BMG).
Dose-response curves for AP activity are generated in a similar way for MPCs infected with Ad-GPR65 and treated with 1-b-D-Galactosylsphingosine (FIG. 5B); for MPCs infected with Ad-AVPR2 and treated with [deamino-Cysl, D-Arg8]-Vasopressin (DDAVP) (FIG. 5C).

[3] = test system: calvarial skull bones (hemicalvaria); assay: Calvarial skull assay (bone organ culture); type: cell-based, CD1 mice
Experimental: CD1 pups are harvested around birth from CD1 female mice (received from Janvier (Le Genest St Isle, France) when they were 11 days pregnant). Pups are decapitated and the calvarial skull is dissected and split into 2 hemicalvaria. Hemicalvaria are blotted using sterile gauze, weighed and cultured in 24 well plates (MEMalpha or BGJb-Fitton-Jackson medium containing 50 μg/ml L-ascorbic acid (Sigma, A-4034), 5 mM β-glycerophosphate (Sigma, G-9891) and Penicillin-Streptomycin (Invitrogen Cat # 15140-122)). Small molecules (ligands, agonists, antagonists) are tested in at least three-fold at a minimum of 3 concentrations. Each small molecule is added to the medium on day 0 and added again when refreshing the medium (every 2-3 days). Three to 16 days after the start of the experiment, skulls are weighed again after blotting them dry using sterile gauze. The weight difference is calculated, expressed as percent weight change and the mean and standard deviations (SD) are calculated for the triplicate measurements. Data are analyzed using the Student's t-test.
The formation of new osteoid is analyzed histologically as follows: hemicalvaria are fixed in 10% buffered formalin for at least 2 days, decalcified in 10% EDTA overnight, processed through graded alcohols and embedded in paraffin wax. Three to 10 μm sections are prepared of the calvaria and stained with hematoxylin and eosin (H&E). Healthy cells, dead cells, old and new bone, and collagen are identified by their distinctive morphology and colouring observed after H&E staining. The surfaces taken by these are measured stereologically (μm^2 readout) and termed Osteoblast area, Debris area, Native and New bone area, Collagen area and Total area (sum of the previous 5 areas), respectively. In addition, the thickness (μm readout) is measured at 8 positions, evenly spaced over the section.
The histological readout of the calvarial skull assay is developed using known osteogenic agents. Hemicalvaria were treated with recombinant human parathyroid hormone (rhPTH).
T0901317 is added to the culture medium of the dissected hemicalvaria at the day of dissection at several doses (19.5, 78.1 and 313 nM), in fourfold. The concentration of the solvent (vehicle), DMSO, is fixed at a final concentration of 0.05%. The medium, containing T0901317 or vehicle control is refreshed every 2-3 days. Hemicalvaria are harvested 7 days after the initiation of the experiment and subjected to the histological analysis described above.

Q: How did the “NR5A2 mRNA levels” value [1] turn out when `C=C1CC[C@H](O)C/C1=C/C=C1\CCC[C@]2(C)[C@@H]([C@H](C)CCCC(C)C)CC[C@@H]12` [VitD3] was run?
A: up-regulated

Q: With `CCCCCCCCCCCCCC=CC(O)C(N)CO[C@@H]1O[C@H](CO)[C@H](O)[C@H](O)[C@H]1O` (stereo partly drawn) [1-b-D-Galactosylsphingosine] as the molecule, how does the “up-regulation of endogenous alkaline phosphatase (AP) activity, dose-response” value [2] read?
A: dose-dependently increase the up-regulation of the endogenous alkaline phosphatase activity; also recorded: dose-dependent up-regulation of AP activity

B1: PTH: recombinant human parathyroid hormone, known osteogenic agent (protein, UniProt P01270 32-115, looked up)
Parathyroid hormone: SVSEIQLMHNLGKHLNSMERVEWLRKKLQDVHNFVALGAPLAPRDAGSQRPRKKEDNVLVESHEKSLGEADKADVNVLTKAKSQ
modifications: Parathyroid hormone
notes: recombinant human parathyroid hormone, known osteogenic agent
Q: With B1 as the molecule, how does the “effect on bone tissue” value ([3]; 10^−7 M) read?
A: resorptive effect on bone tissue

Q: What about the “effect on bone tissue” value ([3]; 10^−11 M) of the same molecule?
A: induces bone build-up
